Data from patent US8003660B2, “Modulators of muscarinic receptors” (Vertex Pharmaceuticals Incorporated, priority 2006, dated 2011).

Columns and labels:
Assay type in all cases: cell-based
[1] = target: T1, M1 muscarinic receptor (Homo sapiens, UniProt P11229); assay: Functional mobilization of intracellular calcium (FLIPR) in CHO cells expressing M1; settings: for M1 Activity: CHO cells expressing M1, FLIPR calcium assay; for Emax: CHO, 100% efficacy = maximum response obtained with the Carbachol control
T1 construct: expressed in transfected cells; host or cells: CHO (M1-CHO)
T1 sequence (P11229 1-460): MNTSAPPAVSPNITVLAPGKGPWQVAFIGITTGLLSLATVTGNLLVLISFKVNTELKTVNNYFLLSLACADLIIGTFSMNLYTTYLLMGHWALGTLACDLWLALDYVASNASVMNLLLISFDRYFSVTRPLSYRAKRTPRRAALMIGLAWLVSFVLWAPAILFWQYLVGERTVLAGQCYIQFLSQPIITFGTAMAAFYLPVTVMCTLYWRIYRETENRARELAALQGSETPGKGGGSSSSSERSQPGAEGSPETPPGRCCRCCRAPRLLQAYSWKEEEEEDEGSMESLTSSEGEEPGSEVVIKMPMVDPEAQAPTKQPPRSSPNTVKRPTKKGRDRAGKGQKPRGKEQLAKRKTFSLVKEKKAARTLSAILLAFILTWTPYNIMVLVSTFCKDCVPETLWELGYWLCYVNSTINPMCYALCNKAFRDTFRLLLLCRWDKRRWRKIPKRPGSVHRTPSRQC
Outline: (§1)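 Calcium flux is read on FLIPR over 60 sec at 488/540 nm in muscarinic-receptor CHO lines. Antagonist mode adds carbachol at EC80 after 15 min compound preincubation or with simultaneous co-application. Agonist mode adds compound alone. Cells carry Fluo-3 or Calcium 3 dye in probenecid-containing pH 7.4 buffer, 0.5% DMSO final.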

[2] = target: T2, M2 muscarinic receptor (Homo sapiens, UniProt P08172); assay: Functional mobilization of intracellular calcium (FLIPR) in CHO cells expressing M2; settings: for M2 Activity: CHO cells expressing M2, FLIPR calcium assay; for Emax: CHO, 100% efficacy = maximum response obtained with the Carbachol control
T2 construct: expressed in transfected cells; host or cells: CHO (M2-CHO)
T2 sequence (P08172 1-466): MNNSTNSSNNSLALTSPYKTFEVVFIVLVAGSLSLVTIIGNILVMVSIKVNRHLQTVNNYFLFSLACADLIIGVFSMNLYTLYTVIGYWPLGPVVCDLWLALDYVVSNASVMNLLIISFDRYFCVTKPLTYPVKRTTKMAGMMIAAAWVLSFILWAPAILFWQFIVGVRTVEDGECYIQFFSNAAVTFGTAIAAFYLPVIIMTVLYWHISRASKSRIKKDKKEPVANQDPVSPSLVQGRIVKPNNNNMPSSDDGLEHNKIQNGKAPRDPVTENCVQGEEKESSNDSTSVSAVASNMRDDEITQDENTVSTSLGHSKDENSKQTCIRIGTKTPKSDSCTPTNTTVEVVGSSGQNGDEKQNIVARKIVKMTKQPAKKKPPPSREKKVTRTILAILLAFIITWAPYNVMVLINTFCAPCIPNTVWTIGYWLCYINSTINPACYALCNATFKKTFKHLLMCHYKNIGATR
Outline: as §1

[3] = target: T3, M3 muscarinic receptor (Homo sapiens, UniProt P20309); assay: Functional mobilization of intracellular calcium (FLIPR) in CHO cells expressing M3; settings: for M3 Activity: CHO cells expressing M3, FLIPR calcium assay; for Emax: CHO, 100% efficacy = maximum response obtained with the Carbachol control
T3 construct: expressed in transfected cells; host or cells: CHO (M3-CHO)
Outline: as §1

[4] = target: T4, M4 muscarinic receptor (Homo sapiens, UniProt P08173); assay: Functional mobilization of intracellular calcium (FLIPR) in CHO cells expressing M4; settings: for M4 Activity: CHO cells expressing M4, FLIPR calcium assay; for Emax: CHO, 100% efficacy = maximum response obtained with the Carbachol control
T4 construct: expressed in transfected cells; host or cells: CHO (M4-CHO)
T4 sequence (P08173 1-479): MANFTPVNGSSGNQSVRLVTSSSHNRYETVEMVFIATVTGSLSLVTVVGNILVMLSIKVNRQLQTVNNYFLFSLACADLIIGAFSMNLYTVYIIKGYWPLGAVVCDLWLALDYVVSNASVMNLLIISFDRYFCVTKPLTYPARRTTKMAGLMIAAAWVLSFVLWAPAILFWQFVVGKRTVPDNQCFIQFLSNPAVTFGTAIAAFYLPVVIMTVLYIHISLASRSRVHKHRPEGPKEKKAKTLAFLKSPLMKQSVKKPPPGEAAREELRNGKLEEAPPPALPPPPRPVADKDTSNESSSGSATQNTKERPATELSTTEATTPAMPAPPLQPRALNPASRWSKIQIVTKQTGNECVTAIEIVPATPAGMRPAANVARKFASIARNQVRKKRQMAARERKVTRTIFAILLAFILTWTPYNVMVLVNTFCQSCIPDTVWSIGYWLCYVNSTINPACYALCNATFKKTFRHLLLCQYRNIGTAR
Outline: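 Read-out: FLIPR fluorescence (ex 488, em 540 nm) over 60 s. Recombinant CHO lines are dye-loaded (Fluo-3 AM or Calcium 3) with 1 mM probenecid. For antagonist mode, compound is pre-incubated 15 min, or co-applied, then carbachol is added at 3× EC80 per subtype.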

T3 sequence (P20309 whole entry): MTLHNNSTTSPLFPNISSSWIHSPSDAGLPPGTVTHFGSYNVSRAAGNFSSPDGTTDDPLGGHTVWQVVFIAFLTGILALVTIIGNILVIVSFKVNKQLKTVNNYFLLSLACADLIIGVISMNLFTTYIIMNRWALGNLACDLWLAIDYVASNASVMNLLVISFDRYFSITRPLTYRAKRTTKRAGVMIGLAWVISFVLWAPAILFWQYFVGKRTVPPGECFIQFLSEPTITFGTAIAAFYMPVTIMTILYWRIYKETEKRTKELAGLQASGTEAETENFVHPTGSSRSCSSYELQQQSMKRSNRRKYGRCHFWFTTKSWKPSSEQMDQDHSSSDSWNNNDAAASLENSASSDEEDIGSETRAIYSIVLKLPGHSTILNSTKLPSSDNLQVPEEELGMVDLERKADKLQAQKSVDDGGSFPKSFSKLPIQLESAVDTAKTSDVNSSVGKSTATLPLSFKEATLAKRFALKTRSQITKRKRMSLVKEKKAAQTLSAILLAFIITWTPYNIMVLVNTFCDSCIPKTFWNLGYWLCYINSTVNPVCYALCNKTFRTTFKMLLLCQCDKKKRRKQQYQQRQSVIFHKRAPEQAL

SMILES	M1 Activity [1]	Emax [1] [%]	M2 Activity [2]	Emax [2] [%]	M3 Activity [3]	Emax [3] [%]	M4 Activity [4]	Emax [4] [%]
CCCC(=O)N[C@H]1CC2(CCN(CCC(C)(C)C)CC2)c2ccccc21 [compound 264]	+ (activity was measured to be greater than 5.0 μM)	< 25	+ (activity was measured to be greater than 5.0 μM)	< 25	+ (activity was measured to be greater than 5.0 μM)	< 25	+++ (activity was measured to be less than 2.0 μM)	25 to 100
CC(C)CCN1CCC2(CC1)C[C@H](NC(=O)c1ccoc1)c1ccccc12 [compound 267]	+ (activity was measured to be greater than 5.0 μM)	< 25	+ (activity was measured to be greater than 5.0 μM)	< 25	+ (activity was measured to be greater than 5.0 μM)	< 25	+ (activity was measured to be greater than 5.0 μM)	< 25
CCC(CC)(CCC#N)CN1CCC2(CC1)C[C@H](NC(C)=O)c1ccccc12 [compound 269]	+ (activity was measured to be greater than 5.0 μM)	25 to 100	+ (activity was measured to be greater than 5.0 μM)	< 25	+ (activity was measured to be greater than 5.0 μM)	< 25	++ (activity was measured to be from 2.0 μM to 5.0 μM)	25 to 100
CCC(=O)N[C@H]1CC2(CCN(C(=O)OC(C)(C)C)CC2)c2ccccc21 [compound 271]	+ (activity was measured to be greater than 5.0 μM)	< 25	+ (activity was measured to be greater than 5.0 μM)	< 25	+ (activity was measured to be greater than 5.0 μM)	< 25	+ (activity was measured to be greater than 5.0 μM)	< 25
CC(=O)N[C@H]1CCC2(CCN(C(=O)OC(C)(C)C)CC2)c2ccccc21 [compound 272]	+ (activity was measured to be greater than 5.0 μM)	< 25	+ (activity was measured to be greater than 5.0 μM)	< 25	+ (activity was measured to be greater than 5.0 μM)	< 25	+ (activity was measured to be greater than 5.0 μM)	< 25
CC(=O)N[C@H]1CC2(CCN(CC(C)CCC=C(C)C)CC2)c2ccccc21 (stereo partly drawn) [compound 273]	+++ (activity was measured to be less than 2.0 μM)	25 to 100	+ (activity was measured to be greater than 5.0 μM)	< 25	+ (activity was measured to be greater than 5.0 μM)	< 25	+++ (activity was measured to be less than 2.0 μM)	25 to 100
CC(C)(C)OC(=O)N1CCC2(CC1)C[C@H](NC(=O)N1CCCC1)c1ccccc12 [compound 276]	+ (activity was measured to be greater than 5.0 μM)	< 25	+ (activity was measured to be greater than 5.0 μM)	< 25	+ (activity was measured to be greater than 5.0 μM)	< 25	+ (activity was measured to be greater than 5.0 μM)	< 25
CC(=O)N[C@H]1CC2(CCN(CCC(C)C)CC2)c2ccccc21 [compound 277]	++ (activity was measured to be from 2.0 μM to 5.0 μM)	25 to 100	+ (activity was measured to be greater than 5.0 μM)	< 25	+ (activity was measured to be greater than 5.0 μM)	< 25	+++ (activity was measured to be less than 2.0 μM)	25 to 100
CC(C)(C)OC(=O)N1CCC2(CC1)C[C@H](NC(=O)C1CC1)c1ccccc12 [compound 279]	+ (activity was measured to be greater than 5.0 μM)	< 25	+ (activity was measured to be greater than 5.0 μM)	< 25	+ (activity was measured to be greater than 5.0 μM)	< 25	+ (activity was measured to be greater than 5.0 μM)	< 25
CC(=O)N[C@@H]1CCC2(CCN(C(=O)OC(C)(C)C)CC2)c2ccccc21 [compound 280]	+ (activity was measured to be greater than 5.0 μM)	< 25	+ (activity was measured to be greater than 5.0 μM)	< 25	+ (activity was measured to be greater than 5.0 μM)	< 25	+ (activity was measured to be greater than 5.0 μM)	< 25
CC(=O)N[C@H]1CC2(CCN(CCC(C)CCC=C(C)C)CC2)c2ccccc21 (stereo partly drawn) [compound 282]	+++ (activity was measured to be less than 2.0 μM)	25 to 100	+ (activity was measured to be greater than 5.0 μM)	< 25	+ (activity was measured to be greater than 5.0 μM)	< 25	+ (activity was measured to be greater than 5.0 μM)	< 25
Cc1ccc2c(c1)C(=O)CC21CCN(CCC(C)(C)C)CC1 [compound 288]	+ (activity was measured to be greater than 5.0 μM)	25 to 100	+ (activity was measured to be greater than 5.0 μM)	< 25	+ (activity was measured to be greater than 5.0 μM)	< 25	++ (activity was measured to be from 2.0 μM to 5.0 μM)	25 to 100
CC(=O)N[C@H]1CC2(CCN(CC(=O)N(C)C)CC2)c2ccccc21 [compound 289]	+ (activity was measured to be greater than 5.0 μM)	< 25	+ (activity was measured to be greater than 5.0 μM)	< 25	+ (activity was measured to be greater than 5.0 μM)	< 25	+ (activity was measured to be greater than 5.0 μM)	< 25
CC(=O)NC1CC2(CCN(C(C)C(C)C)CC2)c2ccccc21 (stereo not drawn) [compound 290]	+ (activity was measured to be greater than 5.0 μM)	25 to 100	+ (activity was measured to be greater than 5.0 μM)	< 25	+ (activity was measured to be greater than 5.0 μM)	< 25	+ (activity was measured to be greater than 5.0 μM)	25 to 100
CC(C)(C)CCN1CCC2(CC1)C[C@H](NC(=O)c1ccoc1)c1ccccc12 [compound 292]	+ (activity was measured to be greater than 5.0 μM)	< 25	+ (activity was measured to be greater than 5.0 μM)	< 25	+ (activity was measured to be greater than 5.0 μM)	< 25	+ (activity was measured to be greater than 5.0 μM)	< 25
